Results published in article PMC11696576, “Next generation thiazolyl ketone inhibitors of cytosolic phospholipase A2 α for targeted cancer therapy” (Nature Communications, 2025).
Where “and” joins values, the source holds several entries; their conditions need not be identical. Equal values may be shown once.

Tests used:
MV-4-11 cells = test: cell viability, resazurin assay, MV-4-11; format: cell-based, human; conditions: for cell viability relative to 0 µM = 100 (Figure S7b): MV-4-11, rep1-4, listed as AVX420
Source text: Bjørn Tore Gjertsen (University of Bergen, Norway). […] The cell lines were not authenticated.
Figure S7. Sensitivity of cell lines derived from hematological malignancies. a. cell viability expressed as relative light units ( RLU) is plotted for all cell lines in the screen that were de-rived from hematological malignancies. b. corresponding IC50 values calculated by non-linear regression analysis. c. Cell viability assessed by resazurin assays in MV-4-11 and HL-60 cells.
Data were normalized to the vehicle-treated control (100%) and are the mean of 4 biological replicates ±stdev (MV-4-11) and 5 biological replicates ±stdev (HL-60), Non-linear regres- […]

CD3+ T-cells = test: viability of healthy T-cells, propidium iodide exclusion; format: cell-based
Description: Data are the mean ± stdev of 3 biological replicates. […] Data are the mean ± stdev of 3 biological replicates.
Propidium iodide exclusion was used to assess cell death by flow cytometry. After treatment, the cells were washed once with PBS and stained with 1.4 μg/mL propidium iodide (PI) for 5 min before quantification of PI negative and positive cells using a CytoFLEX flow cytometer (California, United States). An example of the gating strategy to assess PI staining can be found in Fig. S8c. […]
The propidium iodide exclusion assay was used to assess vi-ability of ungated PBMCs treated with AVX420 at the indicated doses for 24 hours .
Data are the mean ±stdev from 8 biological replicates (1-16 µM) and 5 biological rep- […]
iodide exclusion in CD3+ lymphocytes (T-cells). Cells appearing in the bottom right quadrant are PI-negative (live) T-cells while cells in the top right quadrant are PI-posi- […]
(1 picture or pasted object on this page, not shown here)

[1] = target: T1, human calcium-independent GVIA iPLA2 (Homo sapiens, UniProt O60733); parameters: method as in PMID 25152071; conditions: 0.091 mole fraction; previously published data ref 19; cited from earlier work
T1 sequence (O60733 1-806): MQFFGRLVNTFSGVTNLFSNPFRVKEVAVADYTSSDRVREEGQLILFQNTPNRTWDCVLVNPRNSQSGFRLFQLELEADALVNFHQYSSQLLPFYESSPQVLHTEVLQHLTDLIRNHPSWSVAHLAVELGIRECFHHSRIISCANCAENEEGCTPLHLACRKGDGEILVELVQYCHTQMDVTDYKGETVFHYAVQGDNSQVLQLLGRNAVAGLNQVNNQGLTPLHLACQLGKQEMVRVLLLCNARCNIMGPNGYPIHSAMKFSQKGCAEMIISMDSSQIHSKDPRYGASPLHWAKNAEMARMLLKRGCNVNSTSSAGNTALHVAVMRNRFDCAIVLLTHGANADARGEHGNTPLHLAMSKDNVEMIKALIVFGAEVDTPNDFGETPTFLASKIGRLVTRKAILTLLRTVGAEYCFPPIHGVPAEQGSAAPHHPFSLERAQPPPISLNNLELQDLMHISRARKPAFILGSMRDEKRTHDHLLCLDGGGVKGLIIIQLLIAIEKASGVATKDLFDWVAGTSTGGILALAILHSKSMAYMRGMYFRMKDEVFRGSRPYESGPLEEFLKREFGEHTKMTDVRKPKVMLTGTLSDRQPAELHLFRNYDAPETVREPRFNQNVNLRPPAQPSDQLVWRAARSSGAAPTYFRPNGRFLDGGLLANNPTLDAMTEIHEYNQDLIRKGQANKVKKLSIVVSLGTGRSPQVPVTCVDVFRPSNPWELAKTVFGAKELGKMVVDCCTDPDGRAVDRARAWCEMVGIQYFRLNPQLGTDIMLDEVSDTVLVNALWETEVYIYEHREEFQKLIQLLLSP

secreted GV sPLA2 = target: T2, secreted GV sPLA2 (Homo sapiens, UniProt P39877); parameters: method as in PMID 25152071; conditions: 0.091 mole fraction; previously published data ref 19; cited from earlier work
T2 sequence (P39877 21-138): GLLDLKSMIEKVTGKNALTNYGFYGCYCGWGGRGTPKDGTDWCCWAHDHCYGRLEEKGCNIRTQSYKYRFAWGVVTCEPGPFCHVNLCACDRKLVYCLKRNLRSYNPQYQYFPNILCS

[2] = Figure 6c, 32 µM, listed as AVX420

Compound	IC50 (MV-4-11 cells; Homo sapiens, MV4-11, resazurin assay) [µM]	cell viability relative to 0 µM = 100 (Figure S7b) (MV-4-11 cells; 0.00306 µM)	cell viability relative to 0 µM = 100 (Figure S7b) (MV-4-11 cells; 0.00919 µM)	cell viability relative to 0 µM = 100 (Figure S7b) (MV-4-11 cells; 0.02757 µM)	cell viability relative to 0 µM = 100 (Figure S7b) (MV-4-11 cells; 0.08272 µM)	cell viability relative to 0 µM = 100 (Figure S7b) (MV-4-11 cells; 0.24815 µM)	cell viability relative to 0 µM = 100 (Figure S7b) (MV-4-11 cells; 0.74444 µM)	cell viability relative to 0 µM = 100 (Figure S7b) (MV-4-11 cells; 2.23333 µM)	cell viability relative to 0 µM = 100 (Figure S7b) (MV-4-11 cells; 6.7 µM)	cell viability relative to 0 µM = 100 (Figure S7b) (MV-4-11 cells; 10 µM)	cell viability relative to 0 µM = 100 (Figure S7b) (MV-4-11 cells; 30 µM)	PI Negative (CD3+ T-cells; Figure 6c, 2 µM, listed as AVX420)	PI Negative (CD3+ T-cells; Figure 6c, 8 µM, listed as AVX420)	PI Negative (CD3+ T-cells; Figure 6c, 16 µM, listed as AVX420)	PI Negative (CD3+ T-cells; [2])	PI Positive (CD3+ T-cells; [2])	effect on healthy CD3+ T-cells (CD3+ T-cells; up to a maximum dose tested of 32 µM)	GVIA iPLA2 % Inhib [1] [%]	GV sPLA2 % Inhib (secreted GV sPLA2) [%]
CCCCCCCOc1ccc(OCC(=O)c2nc(C(=O)OC)cs2)cc1 [GK420]	5.7	107.974 and 94.1556 and 88.3103 and 111.814	108.045 and 93.3168 and 91.3448 and 113.05	114.954 and 104.137 and 83.3442 and 127.148	119.708 and 98.9766 and 68.867 and 129.045	113.432 and 105.146 and 76.1961 and 124.847	108.976 and 63.5816 and 66.7499 and 99.3411	103.119 and 55.0214 and 81.5625 and 89.0387	80.6879 and 58.6991 and 52.7781 and 45.3319	48.2149 and 41.1505 and 41.4878 and 26.408	40.7033 and 23.5083 and 29.7689 and 20.683	96 and 98 and 95 and 91 and 89 and 97	96 and 98 and 94 and 90 and 87 and 95 and 93	96 and 98 and 94 and 90 and 84 and 91	92 and 94 and 89 and 91 and 90	6 and 11 and 9 and 10 and 8	no effect	–	–
CCCCCCCCc1ccc(OCC(=O)c2nc(C(=O)OC)cs2)cc1 [GK470]	–	–	–	–	–	–	–	–	–	–	–	–	–	–	–	–	–	86	41
